In patent US20170291890A1 (Epizyme, Inc., priority 2014, published 2017):

Target: T1, KDM5A (Homo sapiens, UniProt P29375)
T1 construct: C-terminal FLAG-tagged KDM5A^1-1090 was purchased from BPS Biosciences; FLAG (C); purchased BPS Biosciences
T1 sequence (P29375 1-1090): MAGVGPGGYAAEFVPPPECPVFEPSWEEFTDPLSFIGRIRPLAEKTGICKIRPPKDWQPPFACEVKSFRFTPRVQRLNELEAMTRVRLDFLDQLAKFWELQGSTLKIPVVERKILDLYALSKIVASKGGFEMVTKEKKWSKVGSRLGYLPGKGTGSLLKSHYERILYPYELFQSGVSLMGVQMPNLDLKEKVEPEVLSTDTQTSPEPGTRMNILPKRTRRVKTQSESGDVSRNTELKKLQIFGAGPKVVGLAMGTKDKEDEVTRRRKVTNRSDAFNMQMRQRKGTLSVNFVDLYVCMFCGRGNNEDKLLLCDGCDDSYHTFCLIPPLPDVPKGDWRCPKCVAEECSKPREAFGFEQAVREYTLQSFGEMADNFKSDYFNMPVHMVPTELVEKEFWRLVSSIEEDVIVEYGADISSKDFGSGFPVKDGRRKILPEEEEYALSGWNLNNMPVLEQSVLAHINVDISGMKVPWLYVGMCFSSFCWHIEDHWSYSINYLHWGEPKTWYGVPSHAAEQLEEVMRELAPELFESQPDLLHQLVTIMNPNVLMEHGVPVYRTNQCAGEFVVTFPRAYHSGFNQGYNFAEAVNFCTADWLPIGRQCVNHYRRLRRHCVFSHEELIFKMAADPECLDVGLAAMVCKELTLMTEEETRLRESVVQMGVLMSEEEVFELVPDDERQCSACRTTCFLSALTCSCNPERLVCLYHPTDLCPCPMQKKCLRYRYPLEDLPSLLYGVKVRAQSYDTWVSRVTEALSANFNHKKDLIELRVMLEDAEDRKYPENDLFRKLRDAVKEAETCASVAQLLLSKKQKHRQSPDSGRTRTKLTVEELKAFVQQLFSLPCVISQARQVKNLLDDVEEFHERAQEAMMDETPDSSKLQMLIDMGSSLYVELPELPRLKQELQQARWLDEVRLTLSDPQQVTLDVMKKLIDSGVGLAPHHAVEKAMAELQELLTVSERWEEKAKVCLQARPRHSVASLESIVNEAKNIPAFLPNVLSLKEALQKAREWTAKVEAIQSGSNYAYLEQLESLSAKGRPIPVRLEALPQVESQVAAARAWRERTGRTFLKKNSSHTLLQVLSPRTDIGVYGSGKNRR
Assay: KDM5A Assay (SAMDI mass spectrometry demethylase assay)
Format: biochemical
Conditions: C-terminal FLAG-tagged KDM5A 1-1090; class symbols; read-out: 5A IC50
Method in brief: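 FLAG-tagged KDM5A 1-1090 (20 nM) preincubated 30 min with compound in pH 8.0 HEPES buffer with ascorbate, Fe(II), TCEP, then reacted 150 min at 25 °C with H3K4me3 peptide (250 nM) and 2-oxoglutarate (15 μM). Formic acid-quenched; SAMDI-MS substrate/product AUC conversion; IC50 from dose-response.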

| SMILES | IC50 [µM] |
| --- | --- |
| Cn1ncc(-c2ccc(F)cc2)c1Nc1cnccc1C(=O)O [Compound 8, 3-((4-(4-fluorophenyl)-1-methyl-1H-pyrazol-5-yl)amino) isonicotinic acid] | 10 to 100 |
| O=C(O)c1ccncc1Nc1nn(CCN2CCC(F)(F)CC2)cc1-c1ccccc1 [Compound 14, 3-((1-(2-(4,4-Difluoropiperidin-1-yl)ethyl)-4-phenyl-1H-pyrazol-3-yl)amino)isonicotinic acid] | 0.001 to 0.1 |
| O=C(O)c1ccncc1Nc1nn(C2CCOCC2)cc1-c1ccccc1 [Compound 72, 3-((4-phenyl-1-(tetrahydro-2H-pyran-4-yl)-1H-pyrazol-3-yl)amino)isonicotinic acid] | 0.1 to 1 |
| Cc1c(Nc2cnccc2C(=O)O)cnn1-c1ccccc1 [Compound 20, 3-((5-methyl-1-phenyl-1H-pyrazol-4-yl)amino)isonicotinic acid] | 1 to 10 |
| O=C(O)c1ccncc1Nc1nn(-c2ccccc2)cc1-c1ccccc1 [Compound 42, 3-((1,4-diphenyl-1H-pyrazol-3-yl)amino)isonicotinic acid] | 0.1 to 1 |
| O=C(O)c1ccncc1Nc1cnn(CCN2CCC(F)(F)CC2)c1-c1ccccc1 [Compound 18, 3-((1-(2-(4,4-difluoropiperidin-1-yl)ethyl)-5-phenyl-1H-pyrazol-4-yl)amino)isonicotinic acid] | 1 to 10 |
| Cc1cc(Nc2cnccc2C(=O)O)n(C2CCOCC2)n1 [Compound 78, 3-((3-methyl-1-(tetrahydro-2H-pyran-4-yl)-1H-pyrazol-5-yl)amino) isonicotinic acid] | 1 to 10 |
| COc1ccccc1-n1cc(C)c(Nc2cnccc2C(=O)O)n1 [Compound 63, 3-((1-(2-methoxyphenyl)-4-methyl-1H-pyrazol-3-yl)amino) isonicotinic acid] | 0.001 to 0.1 |
| N[C@H]1CC[C@@H](n2nc(-c3ccccc3)cc2Nc2cnccc2C(=O)O)CC1 [Compound 37, 3-((1-((cis)-4-aminocyclohexyl)-3-phenyl-1H-pyrazol-5-yl)amino)isonicotinic acid] | 1 to 10 |
| Cc1c(-c2ccccc2)nn(CCN2CCC(F)(F)CC2)c1Nc1cnccc1C(=O)O [Compound 66, 3-((1-(2-(4,4-difluoropiperidin-1-yl)ethyl)-4-methyl-3-phenyl-1H-pyrazol-5-yl)amino)isonicotinic acid] | 10 to 100 |
| O=C(O)c1ccncc1Nc1cc(-c2ccccc2)nn1-c1ccccc1 [Compound 21, 3-((1,3-Diphenyl-1H-pyrazol-5-yl)amino)isonicotinic acid] | 0.1 to 1 |
| O=C(O)c1ccncc1Nc1nn(CCC(F)(F)F)cc1-c1ccncc1 [Compound 74, 3-((4-(pyridin-4-yl)-1-(3,3,3-trifluoropropyl)-1H-pyrazol-3-yl)amino)isonicotinic acid] | 0.1 to 1 |
| Cc1c(Nc2cnccc2C(=O)O)cnn1C1CCNCC1 [Compound 68, 3-((5-methyl-1-(piperidin-4-yl)-1H-pyrazol-4-yl)amino)isonicotinic acid] | 1 to 10 |
| Cn1cc(Nc2cnccc2C(=O)O)c(-c2ccccc2)n1 [Compound 13, 3-((1-methyl-3-phenyl-1H-pyrazol-4-yl)amino) isonicotinic acid] | 1 to 10 |
| Cc1nn(C2CCNCC2)cc1Nc1cnccc1C(=O)O [Compound 69, 3-((3-methyl-1-(piperidin-4-yl)-1H-pyrazol-4-yl)amino) isonicotinic acid] | 0.1 to 1 |
| Cc1nn(C2CCCN(C)CC2)cc1Nc1cnccc1C(=O)O (stereo not drawn) [Compound 111, 3-(3-methyl-1-(1-methylazepan-4-yl)-1H-pyrazol-4-ylamino) isonicotinic acid] | 10 to 100 |
| Cc1cn(-c2ccccc2C#N)nc1Nc1cnccc1C(=O)O [Compound 71, 3-((1-(2-cyanophenyl)-4-methyl-1H-pyrazol-3-yl)amino) isonicotinic acid] | 0.001 to 0.1 |
| Cc1nn(C2CCCNCC2)cc1Nc1cnccc1C(=O)O (single isomer, unassigned) [Compound 116] | 0.1 to 1 |
